Data taken from patent publication US20240285553A1, “METHODS TO MODULATE MITOPHAGY WITH SREBP SIGNALING PATHWAY ACTIVATORS” (THE TRUSTEES OF INDIANA UNIVERSITY, priority 2021, published 2024).
“Also recorded” adds a separate entry of the source.

How the values were obtained:
[1] = test system: pulmonary arterial endothelial cells (PAECs); assay: Western blot of mitochondrial marker TOM20 as measure of mitophagy; type: cell-based, human; conditions: ECs / PAEC
Excerpt: Western blot. Cell lysates were resolved on a SDS PAGE pre-cast gel (Invitrogen) and resolved proteins were transferred on to a PVDF membrane for further detection of proteins using specific antibodies. Antibodies for SREBP1 were purchased from Santa Cruz Biotechnology (Cat #sc-365513) and Novus biological (Cat #NB100-2215). SCD antibody was purchased from Santa Cruz Biotechnology (Cat #sc-58420). Tom20 and LAMP1 antibodies were purchased from Cell Signaling (Cat #42406S and 15665S, respectively).
(§1) First, degradation of a mitochondrial marker (TOM20) was evaluated as a bio-chemical marker of mitophagy induction.

[2] = test system: PAEC / ECs; assay: Immunofluorescence microscopy of Tom20 and lysosomal marker LAMP1 (mitophagy); type: cell-based, human; conditions: ECs
Excerpt: Immunofluorescence Microscopy. Cells were fixed with 4% Formaldehyde (Electron Microscopy Sciences, #C993M24) and permeabilized in the presence of 0.1% Triton X-100 (Sigma). Full-length SREBP1 was stained using mouse monoclonal antibody from Santa Cruz Biotechnology (Cat #sc-365513). Whereas nuclear SREBP1 was detected using antibody from Novus biological (Cat #NB100-2215). […] Tom20 and LAMP1 antibodies were purchased from Cell Signaling (Cat #42406S and 15665S, respectively). Images were captured on an inverted fluorescent microscope (Leica).
as §1
Fixed cells were stained with Tom20 and Lamp1 and the fluorescence images were captured on a fluorescence microscope.

[3] = test system: ECs; assay: Transmission electron microscopy for mitophagy; type: cell-based, human; conditions: 10 uM propranolol, 10 uM R-propranolol or 0.1 uM JW480 for 12 hours
Protocol: Transmission Electron Microscopy. […] Thin sections from these fixed cell blocks were visualized on Tecnai Spirit (ThermoFisher) TEM Microscope. Images captured were analyzed.
TEM evidence. […] ECs exposed to these drugs were fixed and the images were captured on a TEM.

[4] = test system: SREBP1; assay: Western blot of SREBP1, SCD and NCEH1 (SREBP1 activation); type: cell-based, human; conditions: western blot
Excerpt: Western blot. Cell lysates were resolved on a SDS PAGE pre-cast gel (Invitrogen) and resolved proteins were transferred on to a PVDF membrane for further detection of proteins using specific antibodies. Antibodies for SREBP1 were purchased from Santa Cruz Biotechnology (Cat #sc-365513) and Novus biological (Cat #NB100-2215). SCD antibody was purchased from Santa Cruz Biotechnology (Cat #sc-58420). Tom20 and LAMP1 antibodies were purchased from Cell Signaling (Cat #42406S and 15665S, respectively). […]

[5] = test system: Sugen/hypoxia-induced PAH in rats; assay: Sugen/hypoxia (SuHx) rat model of PAH; type: in vivo
Protocol: FIGS. 10A-10C-R-propranolol attenuates rodent PAH. Sugen (20 mg/kg, IP) injection was administered to rats and then they were exposed to 3 weeks of hypoxia (10% FiO2) and then placed in normoxia (21% FiO2) for 4 weeks to develop severe pulmonary arterial hypertension (FIG. 10A is a schematic of the experimental procedure). Rats were then administered either r-propranolol (5 mg/kg/day, IP) for the last 4 weeks or r-propranolol (10 mg/kg/day, IP) for the last 2 weeks or vehicle for the last 4 weeks. Rats with vehicle exposure developed severe PAH at the end of the protocol as confirmed by right ventricular systolic pressures (RVSP; FIG. 10B) and surrogate measures of RV hypertrophy (RV/(LV+S); FIG. 10C).
FIGS. 15A-15M-R-propranolol attenuates rodent PAH. Sugen (20 mg/kg, IP) injection was administered to rats and then they were exposed to 3 weeks of hypoxia (10% FiO2) and then placed in normoxia (21% FiO2) for 4 weeks to develop severe pulmonary arterial hypertension (FIG. 15A is a schematic of the experimental procedure). Rats receiving Sugen (SuHx) for three weeks of 7 weeks were then administered either r-propranolol (5 mg/kg/day, IP) for the last 4 weeks or r-propranolol (10 mg/kg/day, IP) for the last 2 weeks or vehicle for the last 4 weeks. SuHx treated rats (but not controls) with vehicle exposure developed severe PAH at the end of the protocol as confirmed by right ventricular pressures (RVP; FIG. 15B) and right ventricular systolic pressures (RVSP; FIG. 15C, lane 1: control; lane 2: control+r-propranolol 5 mg; lane 3: SuHx 3 wk; lane 4: SuHx 7 wk; lane 5: SuHx+r-propranolol 5 mg; SuHx+r-propranolol 10 mg) and surrogate measures of RV hypertrophy (FIGS. 15D-15J). […] FIG. 15K show the PA thickness of SuHx treated rats with vehicle exposure vs r-propranolol exposure. FIG. 15L show the RV cross-sectional thickness of SuHx treated rats with vehicle exposure vs r-propranolol exposure.
R-propranolol attenuated rodent PAH. Rats were administered a one-time sugen (20 mg/kg, IP) injection and exposed to 3 weeks of hypoxia (10% FiO2) and then placed in normoxia (21% FiO2) for 4 weeks. […] In the last 4 week normoxic period, rats were administered either r-propranolol (5 mg/kg/day, IP) for the last 4 weeks or r-propranolol (10 mg/kg/day, IP) for the last 2 weeks or vehicle for the last 4 weeks. Rats with vehicle exposure developed severe PAH at the end of the protocol as confirmed by right ventricular systolic pressures (RVSP) and surrogate measures of RV hypertrophy (RV/(LV+S)).

[6] = test system: HF-PH mice; assay: High-fat diet AKR/J HF-PH mouse model; type: in vivo; conditions: 4 weeks, implanted mini osmotic pump, vs vehicle
Excerpt: FIG. 14: Using a mouse model fed a high-fat diet, AKR/J mice develop obesity, insulin resistance, heart failure with preserved ejection fraction, and pulmonary hypertension and are designated as “HF-PH mice”.
Using a mouse model fed a high-fat diet (Research Diets, New Brunswick, NJ) for 16-20 weeks, AKR/J mice (Jackson Laboratories, Bar Harbor, ME) develop obesity, insulin resistance, heart failure with preserved ejection fraction, and pulmonary hypertension. (Meng, et al., 2017; Arwood, et al., 2019).

[7] = test system: beta-adrenergic receptor; conditions: cited from earlier work
[8] = 5 mg/kg/day IP for the last 4 weeks
[9] = 10 mg/kg/day IP for the last 2 weeks

## CC(C)NC[C@@H](O)COc1cccc2ccccc12 [R-propranolol]
[1]
  Tom20 levels (mitophagy): decreased Tom20 levels; also recorded: lower
[2]
  mitophagy by immunofluorescence (Tom20/Lamp1): induce mitophagy; also recorded: Tom20 was mobilized to lysosome
[3]
  mitophagy by TEM (bilipid membrane formation around mitochondria): promoted mitophagy
[4]; ECs / PAEC
  SCD (SREBP1 target) levels: elevated
  SREBP1 levels (non-cleaved; decrease indicates cleavage and activation): reduce SREBP1 levels
[4]; ECs
  NCEH1 levels: higher
[5]; [8]
  RV hypertrophy (RV/(LV+S)): trended toward improvement
  RVSP: trended toward improvement
[5]; [9]
  RV hypertrophy (RV/(LV+S)): attenuated
  RVSP: attenuated
[6]
  right ventricular systolic pressure: significantly decreased
[7]
  beta-adrenergic receptor affinity, fold less than propranolol: 100 fold
